Measured values from patent US6241965A, “Somatostatin derivatives and their radiolabelled products” (Diatide, Inc., priority 1996, dated 2001).
Starred links: 1 amine or outer side, 2 acyl side, 3 side chain; linkers in the order of their positions; H or OH if unused. Positions of bridges follow the written chain, without caps; N, C: chain ends. Non-standard residues stand in square brackets, D forms with d. Residues, ends and D or L forms follow the SMILES beside them. Chains are numbered I, II in the order given. *: point of attachment. DTPA = O=C(O)CN(CCN(CC(=O)O)CC(=O)O)CCN(CC(=O)O)CC(=O)*; X1 = O=C(C(=O)*)[C@@H](O)[C@H](O)[C@@H](O)CO; Phe(4-Cl) = N[C@@H](Cc1ccc(Cl)cc1)C(=O)O; 2Nal = N[C@@H](Cc1ccc2ccccc2c1)C(=O)O; d2Nal = N[C@H](Cc1ccc2ccccc2c1)C(=O)O; εLys = N[C@@H](CCCCN[*:1])C(=O)[*:2]; NMeF = CN[C@@H](Cc1ccccc1)C(=O)O; hCys = N[C@@H](CCS)C(=O)O; X2 = O=C(C[*:1])[*:2]; Acm = CC(=O)NC*

Target: T1, somatostatin receptors (Rattus norvegicus, UniProt P30680)
T1 construct: endogenous in cells; host or cells: AR42J rat pancreatic tumor cell membranes
T1 sequence (P30680 whole entry): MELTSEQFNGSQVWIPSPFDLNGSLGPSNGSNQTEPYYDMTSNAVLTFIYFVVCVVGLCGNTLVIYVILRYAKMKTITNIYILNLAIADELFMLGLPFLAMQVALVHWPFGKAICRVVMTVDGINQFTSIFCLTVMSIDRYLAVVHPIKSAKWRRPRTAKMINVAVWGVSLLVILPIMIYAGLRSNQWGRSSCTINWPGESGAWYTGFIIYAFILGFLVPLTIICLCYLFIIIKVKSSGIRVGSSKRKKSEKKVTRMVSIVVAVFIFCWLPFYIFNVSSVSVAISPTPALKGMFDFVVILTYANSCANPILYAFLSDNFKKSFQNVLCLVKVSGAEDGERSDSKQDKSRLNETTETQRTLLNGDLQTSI
Assay: Inhibition of binding of (125I-Tyr11)somatostatin-14 to AR42J rat pancreatic tumor cell membranes
Conditions: displacement of (125I-Tyr11)somatostatin-14, AR42J cell membranes
Method: Inhibition of Binding of (^125 I-Tyr^11)somatostatin-14 to AR42J Rat Pancreatic Tumor Cell Membranes
The rat pancreatic tumor cell line AR42J which expresses the somatostatin receptor was cultured in Dulbecco's minimal essential media (DMEM) supplemented with 10% fetal bovine serum (FBS) and 8 mM glutamine in a humdified 5% CO2 atmosphere at 37° C. in T-flasks. Harvested cells were homogenized in cold 50 mM Tris-HCl buffer (pH 7.4) and the homogenate then centrifuged at 39,000g for 10 min at 4° C. Pellets were washed once with buffer and then resuspended in an ice-cold solution of 10mM Tris-HCl (pH 7.4). Equal aliquots of this cell membrane preparation were incubated with (^125 I-Tyr^11)somatostatin-14 (at a final concentration of 0.5nM and 750,000cpm/mL, at a specific activity of 2000Ci/mmol, Amersham, Arlington Heights, Ill.) and peptide at a final concentration of from 10^-11 M to 10^-6 M in a solution of 50 mM HEPES (pH 7.4) containing 1% bovine serum albumin (BSA), 5 mM MgCl2, Trasylol (200,000 International Units), bacitracin (0.02 mg/mL) and phenylmethylsulfonylfluoride (0.02 mg/mL) for 25 min at 30° C. Using a filtration manifold, this mixture was filtered through a polyethyleneimine-washed GC/F filter (Whatman, Maidstone, England), and the residue remaining on the filter washed thrice with 5 mL cold HEPES buffer. The filter and a sample of the filter washings were then counted in a gamma counter. To assess non-specific binding, the assay was performed in the presence of unlabeled somatostatin-14 at 200 nM. Data analysis including Hill plots of the data provided inhibition constants (see Bylund & Yamamura, "Methods of receptor binding", in Methods in Neurotransmitter Receptor Analysis, Yamamura et al., eds., Raven Press: New York, 1990).

Row | Molecule | Ki ((Re=O)-complexed peptides) | Ki (peptides not metal-complexed)
1 | Ac.FD FYWD KTFTGGG(ε-K)KC.amide | 6.1 nM | –
2 | Ac.DD DFD.Cpa.YWD KTFT(ε-K)GCKK.amide | 1.4 nM | –
3 | C[C@@H](O)[C@H](NC(=O)[C@H](Cc1ccccc1)NC(=O)[C@@H](NC(=O)[C@H](CCCCN)NC(=O)[C@@H](Cc1c[nH]c2ccccc12)NC(=O)[C@H](Cc1ccc(O)cc1)NC(=O)[C@H](Cc1ccc(Cl)cc1)NC(=O)[C@H](N)Cc1ccccc1)[C@@H](C)O)C(=O)N[C@@H](CS)C(=O)NCC(=O)N[C@@H](CS)C(N)=O [FD.Cpa.YWD KTFTCGC.amide] (H-[dF][Phe(4-Cl)]Y[dW]KTFTCGC-NH2) | – | 4.8 nM
4 | NalD.Cpa.YWD KTFT(ε-K)GCKK.amide | 2.2 nM | –
5 | (DTPA).Aca.FD.Cpa.YWD KTFT(ε-K)GC.amide | 8.2 nM | –
6 | FD.Cpa.YWD KTC(ε-K)GCKK.amide | 0.13 nM | –
7 | CC(C)[C@@H]1NC(=O)[C@H](CCCCN)NC(=O)[C@@H](Cc2c[nH]c3ccccc23)NC(=O)[C@H](Cc2ccc(O)cc2)NC(=O)[C@H](Cc2ccccc2)N(C)C(=O)[C@H](CCSCC(=O)NCC(=O)NCC(=O)N[C@@H](CS)C(=O)N[C@@H](CCCCN)C(=O)N[C@@H](CCCCN)C(N)=O)NC1=O [cyclo(N-Me)FYWD KV.Hcy(CH2 CO.GGCKK.amide)] (I: cyclo([NMeF]Y[dW]KV[hCys]) / II: GGCKK-NH2; linker I:6-II:N via X2) | – | 0.26 nM
8 | FD.Cpa.YWD KTC(ε-K)GC.amide | 0.36 nM | –
9 | KDKKK.NalD.Cpa.YWD KTFT(ε-K)GCKDKD.amide | 3.8 nM | –
10 | KD KKKFD.Cpa.YWD KTF.Nal.(ε-K)GCDDDD.amide | 8.1 nM | –
11 | C[C@H](N)C(=O)N[C@@H](CCCCN)C(=O)N[C@@H](CS)C(=O)NCC(=O)NCC(=O)NCC(=O)N[C@H](Cc1ccccc1)C(=O)N[C@@H](Cc1ccc(Cl)cc1)C(=O)N[C@@H](Cc1ccc(O)cc1)C(=O)N[C@H](Cc1c[nH]c2ccccc12)C(=O)N[C@@H](CCCCN)C(=O)N[C@H](C(=O)N[C@@H](Cc1ccccc1)C(=O)N[C@H](C(N)=O)[C@@H](C)O)[C@@H](C)O [AKCGGGFD.Cpa.YWD KTFT.amide] (H-AKCGGG[dF][Phe(4-Cl)]Y[dW]KTFT-NH2) | – | 1.4 nM
12 | FD.Cpa.YWD KTC(ε-K)CGC.amide | 0.37 nM | –
13 | CC(=O)NCSC[C@H](NC(=O)CNC(=O)[C@H](CSCNC(C)=O)NC(=O)[C@@H](NC(=O)[C@H](Cc1ccccc1)NC(=O)[C@@H](NC(=O)[C@H](CCCCN)NC(=O)[C@@H](Cc1c[nH]c2ccccc12)NC(=O)[C@H](Cc1ccc(O)cc1)NC(=O)[C@H](Cc1ccc(Cl)cc1)NC(=O)[C@@H](Cc1ccc2ccccc2c1)NC(=O)CN(CCN(CCN(CC(=O)O)CC(=O)O)CC(=O)O)CC(=O)O)[C@@H](C)O)[C@@H](C)O)C(N)=O [(DTPA)NalD.Cpa.YWD KTFTCAcm GCAcm.amide] ({DTPA}-[d2Nal][Phe(4-Cl)]Y[dW]KTFTC(Acm)GC(Acm)-NH2) | 3.1 nM | –
14 | KD KK.NalD.Cpa.YWD KTFT(ε-K)GCDD.amide | 1.6 nM | –
15 | (DTPA).NalD.Cpa.YWD KTFT(ε-K)GC.amide | 11 nM | –
16 | Hca.NalD.Cpa.YWD KTFT(ε-K)GCKK, amide | 8 nM | –
17 | KD KKK.NalD.Cpa.YWD KTFT(ε-K)GCKDKD.amide | – | 4.9 nM
18 | CC(C)[C@H](NC(=O)[C@H](CCCCN)NC(=O)[C@@H](Cc1c[nH]c2ccccc12)NC(=O)[C@H](Cc1ccc(O)cc1)NC(=O)[C@H](CS)NC(=O)[C@@H](Cc1ccc2ccccc2c1)NC(=O)CN(CCN(CCN(CC(=O)O)CC(=O)N[C@H](Cc1ccc2ccccc2c1)C(=O)N[C@@H](CS)C(=O)N[C@@H](Cc1ccc(O)cc1)C(=O)N[C@H](Cc1c[nH]c2ccccc12)C(=O)N[C@@H](CCCCN)C(=O)N[C@H](C(=O)N[C@@H](CS)C(=O)N[C@H](C(N)=O)[C@@H](C)O)C(C)C)CC(=O)O)CC(=O)O)C(=O)N[C@@H](CS)C(=O)N[C@H](C(N)=O)[C@@H](C)O [(DTPA)(NalD.CYWD KVCT)2] | – | 7.2 nM
19 | C[C@@H](O)[C@H](NC(=O)[C@H](Cc1ccccc1)NC(=O)[C@@H](NC(=O)[C@H](CCCCN)NC(=O)[C@@H](Cc1c[nH]c2ccccc12)NC(=O)[C@H](Cc1ccc(O)cc1)NC(=O)[C@H](Cc1ccc(Cl)cc1)NC(=O)[C@@H](Cc1ccccc1)NC(=O)C(=O)[C@@H](O)[C@H](O)[C@@H](O)CO)[C@@H](C)O)C(=O)NCCCC[C@H](N)C(=O)NCC(=O)N[C@@H](CS)C(N)=O [(2-ketogulonyl)FD.Cpa.YWD KTFT(ε-K)GC.amide] (X1-[dF][Phe(4-Cl)]Y[dW]KTFT[εLys]GC-NH2) | 3.7 nM | 2.7 nM
20 | DD DFD.Cpa.YWD KTFT(ε-K)GCKK.amide | 0.5 nM | –
21 | (DTPA).FD.Cpa.YWD KTFT(ε-K)GC.amide | 7.9 nM | –
22 | C[C@@H](O)[C@H](NC(=O)[C@H](Cc1ccc2ccccc2c1)NC(=O)[C@@H](NC(=O)[C@H](CCCCN)NC(=O)[C@@H](Cc1c[nH]c2ccccc12)NC(=O)[C@H](Cc1ccc(O)cc1)NC(=O)[C@H](Cc1ccc(Cl)cc1)NC(=O)[C@@H](Cc1ccc2ccccc2c1)NC(=O)CN(CCN(CCN(CC(=O)O)CC(=O)O)CC(=O)O)CC(=O)O)[C@@H](C)O)C(=O)NCCCC[C@H](N)C(=O)NCC(=O)N[C@@H](CS)C(=O)N[C@@H](CCCCN)C(=O)N[C@@H](CCCCN)C(N)=O [(DTPA)NalD.Cpa.YWD KT.Nal.T(ε-K)GCKK.amide] ({DTPA}-[d2Nal][Phe(4-Cl)]Y[dW]KT[2Nal]T[εLys]GCKK-NH2) | – | 2 nM
23 | KD KK.NalD.Cpa.YWD KTFT(ε-K)GCDDD.amide | 1.5 nM | –
